Source: patent US20210205236A1, “THERAPEUTIC COMBINATIONS OF BOSWELLIA EXTRACT AND CANNABINOIDS” (priority 2018, published 2021)
Like-named read-outs stand apart in the source and are kept apart here.

Key:
CB1 receptor [1] = biological target: T1, CB1 receptor (Homo sapiens, UniProt P21554); experiment: cell-based; format: cell-based; details: for Experiment 1 Fold change / Experiment 2 Fold change / Experiment 3 Fold change: Table 3 data re-expressed as fold change
T1 construct: expressed in transfected cells
T1 sequence (P21554 whole entry): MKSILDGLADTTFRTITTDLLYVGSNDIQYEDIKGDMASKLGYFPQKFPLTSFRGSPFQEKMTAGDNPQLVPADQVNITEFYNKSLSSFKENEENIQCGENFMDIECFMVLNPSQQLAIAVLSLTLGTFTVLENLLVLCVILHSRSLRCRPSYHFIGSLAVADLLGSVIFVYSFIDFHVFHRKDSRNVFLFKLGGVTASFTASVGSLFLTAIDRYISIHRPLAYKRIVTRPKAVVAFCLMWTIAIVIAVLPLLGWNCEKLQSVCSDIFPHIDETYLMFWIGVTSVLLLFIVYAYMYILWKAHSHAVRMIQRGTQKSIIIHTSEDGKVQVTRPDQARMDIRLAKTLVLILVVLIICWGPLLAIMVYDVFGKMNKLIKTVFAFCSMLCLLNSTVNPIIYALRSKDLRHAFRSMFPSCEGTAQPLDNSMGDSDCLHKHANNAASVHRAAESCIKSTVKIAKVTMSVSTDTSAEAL

CB1 receptor [2] = biological target: T1, CB1 receptor; format: cell-based; details: for Conclusions: Is CB1R agonist effect observed? / Experiment 1 Fold change / Experiment 2 Fold change / Experiment 3 Fold change: alone or + THCA 10 μM or + THC 10 μM
[3] = AKBA 5 μM, alone or + THCA 10 μM, CBD 1 μM or THC 10 μM
[4] = AKBA 10 μM, alone or + THCA 10 μM, CBD 1 μM or THC 10 μM
[5] = AKBA 25 μM, alone or + THCA 10 μM, CBD 1 μM or THC 10 μM
[6] = AKBA 50 μM, alone or + THCA 10 μM, CBD 1 μM or THC 10 μM
[7] = AKBA 100 μM, alone or + THCA 10 μM, CBD 1 μM or THC 10 μM
[8] = CBD 1 μM without AKBA, CP55940-induced activity = 100%

CC(=O)O[C@@H]1CC[C@@]2(C)[C@@H](CC[C@]3(C)[C@@H]2C(=O)C=C2[C@@H]4[C@@H](C)[C@H](C)CC[C@]4(C)CC[C@]23C)[C@@]1(C)C(=O)O [AKBA, 3-O-acetyl-11-ketobeta-boswellic acid]
EC50 (CB1 receptor [1]): 51.7 ± 13.6 µM
Positive allosteric CB1R effect on CP-55940 activity (CB1 receptor [1]): strong positive allosteric CB1R effect
Conclusions: Is CB1R antagonist effect observed? (CB1 receptor [1]; AKBA 5 μM, alone or + THCA 10 μM, CBD 1 μM or THC 10 μM, % of activity data): Negative (Only treatments that the mean of three consecutive independent experiments show a positive result (CB1R activity ≤ 50%) are considered antagonists of CB1R activity)
activity at 5 µM (CB1 receptor [1]; AKBA 5 μM, alone or + THCA 10 μM, CBD 1 μM or THC 10 μM, CP55940-induced activity = 100%, read-out: Experiment 1 % of activity): 130%
activity at 5 µM (CB1 receptor [1]; AKBA 5 μM, alone or + THCA 10 μM, CBD 1 μM or THC 10 μM, CP55940-induced activity = 100%, read-out: Experiment 2 % of activity): 123%
activity at 5 µM (CB1 receptor [1]; AKBA 5 μM, alone or + THCA 10 μM, CBD 1 μM or THC 10 μM, CP55940-induced activity = 100%, read-out: Experiment 3 % of activity): 103%
Experiment 1 Fold change (CB1 receptor [1]; [3]): 3.2 Fold change
Experiment 2 Fold change (CB1 receptor [1]; [3]): 3.1 Fold change
Experiment 3 Fold change (CB1 receptor [1]; [3]): 2.6 Fold change
Conclusions: Is CB1R antagonist effect observed? (CB1 receptor [1]; AKBA 5 μM, alone or + THCA 10 μM, CBD 1 μM or THC 10 μM, positive allosteric activity, fold change data): Negative (Only treatments that the mean of three consecutive independent experiments show a positive result (CB1R activity ≥ 4-fold change) are considered positive CB1R allosteric agonists)
Conclusions: Is CB1R antagonist effect observed? (CB1 receptor [1]; AKBA 10 μM, alone or + THCA 10 μM, CBD 1 μM or THC 10 μM, % of activity data): Negative (Only treatments that the mean of three consecutive independent experiments show a positive result (CB1R activity ≤ 50%) are considered antagonists of CB1R activity)
activity at 10 µM (CB1 receptor [1]; AKBA 10 μM, alone or + THCA 10 μM, CBD 1 μM or THC 10 μM, CP55940-induced activity = 100%, read-out: Experiment 1 % of activity): 136%
activity at 10 µM (CB1 receptor [1]; AKBA 10 μM, alone or + THCA 10 μM, CBD 1 μM or THC 10 μM, CP55940-induced activity = 100%, read-out: Experiment 2 % of activity): 114%
activity at 10 µM (CB1 receptor [1]; AKBA 10 μM, alone or + THCA 10 μM, CBD 1 μM or THC 10 μM, CP55940-induced activity = 100%, read-out: Experiment 3 % of activity): 96.4%
Experiment 1 Fold change (CB1 receptor [1]; [4]): 3.4 Fold change
Experiment 2 Fold change (CB1 receptor [1]; [4]): 2.8 Fold change
Experiment 3 Fold change (CB1 receptor [1]; [4]): 2.4 Fold change
Conclusions: Is CB1R antagonist effect observed? (CB1 receptor [1]; AKBA 10 μM, alone or + THCA 10 μM, CBD 1 μM or THC 10 μM, positive allosteric activity, fold change data): Negative (Only treatments that the mean of three consecutive independent experiments show a positive result (CB1R activity ≥ 4-fold change) are considered positive CB1R allosteric agonists)
Conclusions: Is CB1R antagonist effect observed? (CB1 receptor [1]; AKBA 25 μM, alone or + THCA 10 μM, CBD 1 μM or THC 10 μM, % of activity data): Allosterism (increase of the CB1R activity percentage (>150%) induced by CP55940)
activity at 25 µM (CB1 receptor [1]; AKBA 25 μM, alone or + THCA 10 μM, CBD 1 μM or THC 10 μM, CP55940-induced activity = 100%, read-out: Experiment 1 % of activity): 203%
activity at 25 µM (CB1 receptor [1]; AKBA 25 μM, alone or + THCA 10 μM, CBD 1 μM or THC 10 μM, CP55940-induced activity = 100%, read-out: Experiment 2 % of activity): 158%
activity at 25 µM (CB1 receptor [1]; AKBA 25 μM, alone or + THCA 10 μM, CBD 1 μM or THC 10 μM, CP55940-induced activity = 100%, read-out: Experiment 3 % of activity): 128%
Experiment 1 Fold change (CB1 receptor [1]; [5]): 5.1 Fold change
Experiment 2 Fold change (CB1 receptor [1]; [5]): 3.9 Fold change
Experiment 3 Fold change (CB1 receptor [1]; [5]): 3.2 Fold change
Conclusions: Is CB1R antagonist effect observed? (CB1 receptor [1]; AKBA 25 μM, alone or + THCA 10 μM, CBD 1 μM or THC 10 μM, positive allosteric activity, fold change data): Allosterism (An increase of the fold change ≥ 4-fold indicates CB1R positive allosteric agonistic activity)
Conclusions: Is CB1R antagonist effect observed? (CB1 receptor [1]; AKBA 50 μM, alone or + THCA 10 μM, CBD 1 μM or THC 10 μM, % of activity data): Allosterism (increase of the CB1R activity percentage (>150%) induced by CP55940)
activity at 50 µM (CB1 receptor [1]; AKBA 50 μM, alone or + THCA 10 μM, CBD 1 μM or THC 10 μM, CP55940-induced activity = 100%, read-out: Experiment 1 % of activity): 500%
activity at 50 µM (CB1 receptor [1]; AKBA 50 μM, alone or + THCA 10 μM, CBD 1 μM or THC 10 μM, CP55940-induced activity = 100%, read-out: Experiment 2 % of activity): 537%
activity at 50 µM (CB1 receptor [1]; AKBA 50 μM, alone or + THCA 10 μM, CBD 1 μM or THC 10 μM, CP55940-induced activity = 100%, read-out: Experiment 3 % of activity): 474%
Experiment 1 Fold change (CB1 receptor [1]; [6]): 12.5 Fold change
Experiment 2 Fold change (CB1 receptor [1]; [6]): 13.4 Fold change
Experiment 3 Fold change (CB1 receptor [1]; [6]): 11.9 Fold change
Conclusions: Is CB1R antagonist effect observed? (CB1 receptor [1]; AKBA 50 μM, alone or + THCA 10 μM, CBD 1 μM or THC 10 μM, positive allosteric activity, fold change data): Allosterism (An increase of the fold change ≥ 4-fold indicates CB1R positive allosteric agonistic activity)
Conclusions: Is CB1R antagonist effect observed? (CB1 receptor [1]; AKBA 100 μM, alone or + THCA 10 μM, CBD 1 μM or THC 10 μM, % of activity data): Allosterism (increase of the CB1R activity percentage (>150%) induced by CP55940)
activity at 100 µM (CB1 receptor [1]; AKBA 100 μM, alone or + THCA 10 μM, CBD 1 μM or THC 10 μM, CP55940-induced activity = 100%, read-out: Experiment 2 % of activity): 674%
activity at 100 µM (CB1 receptor [1]; AKBA 100 μM, alone or + THCA 10 μM, CBD 1 μM or THC 10 μM, CP55940-induced activity = 100%, read-out: Experiment 3 % of activity): 485%
Experiment 1 Fold change (CB1 receptor [1]; [7]): 25.6 Fold change
Experiment 2 Fold change (CB1 receptor [1]; [7]): 16.8 Fold change
Experiment 3 Fold change (CB1 receptor [1]; [7]): 12.1 Fold change
Conclusions: Is CB1R antagonist effect observed? (CB1 receptor [1]; AKBA 100 μM, alone or + THCA 10 μM, CBD 1 μM or THC 10 μM, positive allosteric activity, fold change data): Allosterism (An increase of the fold change ≥ 4-fold indicates CB1R positive allosteric agonistic activity)
CB1R antagonistic effect (CB1 receptor [1]; AKBA 5-100 μM, CP55940-stimulated cells): did not show an antagonistic effect
Conclusions: Is CB1R agonist effect observed? (CB1 receptor [2]; AKBA 5 μM): Negative (Only treatments that the mean of three consecutive independent experiments shows a positive result: CB1R activity ≥ 2.5-fold increase or ≥ 4-fold increase are considered CB1R agonists or CB1R positive allosteric modulators)
Experiment 1 Fold change (CB1 receptor [2]; AKBA 5 μM): 0.8 Fold change
Experiment 2 Fold change (CB1 receptor [2]; AKBA 5 μM): 0.8 Fold change
Experiment 3 Fold change (CB1 receptor [2]; AKBA 5 μM): 1.1 Fold change
Conclusions: Is CB1R agonist effect observed? (CB1 receptor [2]; AKBA 10 μM): Negative (Only treatments that the mean of three consecutive independent experiments shows a positive result: CB1R activity ≥ 2.5-fold increase or ≥ 4-fold increase are considered CB1R agonists or CB1R positive allosteric modulators)
Experiment 1 Fold change (CB1 receptor [2]; AKBA 10 μM): 1.0 Fold change
Experiment 2 Fold change (CB1 receptor [2]; AKBA 10 μM): 1.3 Fold change
Experiment 3 Fold change (CB1 receptor [2]; AKBA 10 μM): 0.9 Fold change
Experiment 1 Fold change (CB1 receptor [2]; AKBA 25 μM): 1.0 Fold change
Experiment 2 Fold change (CB1 receptor [2]; AKBA 25 μM): 1.1 Fold change
Experiment 3 Fold change (CB1 receptor [2]; AKBA 25 μM): 0.8 Fold change
Conclusions: Is CB1R agonist effect observed? (CB1 receptor [2]; AKBA 25 μM, cell 'Positive' wraps to 'Positive synergy'): Negative (Only treatments that the mean of three consecutive independent experiments shows a positive result: CB1R activity ≥ 2.5-fold increase or ≥ 4-fold increase are considered CB1R agonists or CB1R positive allosteric modulators)
Experiment 1 Fold change (CB1 receptor [2]; AKBA 50 μM): 1.3 Fold change
Experiment 2 Fold change (CB1 receptor [2]; AKBA 50 μM): 1.3 Fold change
Experiment 3 Fold change (CB1 receptor [2]; AKBA 50 μM): 0.7 Fold change
Conclusions: Is CB1R agonist effect observed? (CB1 receptor [2]; AKBA 50 μM, cell 'Positive' wraps to 'Positive synergy'): Negative (Only treatments that the mean of three consecutive independent experiments shows a positive result: CB1R activity ≥ 2.5-fold increase or ≥ 4-fold increase are considered CB1R agonists or CB1R positive allosteric modulators)
Experiment 1 Fold change (CB1 receptor [2]; AKBA 100 μM): 2.5 Fold change
Experiment 2 Fold change (CB1 receptor [2]; AKBA 100 μM): 1.1 Fold change
Experiment 3 Fold change (CB1 receptor [2]; AKBA 100 μM): 0.7 Fold change
Conclusions: Is CB1R agonist effect observed? (CB1 receptor [2]; AKBA 100 μM, cell 'Positive' wraps to 'Positive synergy'): Negative (Only treatments that the mean of three consecutive independent experiments shows a positive result: CB1R activity ≥ 2.5-fold increase or ≥ 4-fold increase are considered CB1R agonists or CB1R positive allosteric modulators)
CB1R agonistic activity (CB1 receptor [2]; AKBA 5-100 μM alone or + 10 μM THCA, any tested concentration, THC alone): did not show CB1R agonistic activity

C=C(C)[C@@H]1CCC(C)=C[C@H]1c1c(O)cc(CCCCC)cc1O [CBD, cannabidiol, reference compound]
Effect of cannabinoid on AKBA CB1R positive allosteric activity (CB1 receptor [1]; AKBA 50 and 100 μM, THCA 10 μM or CBD 1 μM): almost abolished
Conclusions: Is CB1R antagonist effect observed? (CB1 receptor [1]; CBD 1 μM without AKBA, % of activity data): + (A reduction of the percentage below 50% indicates CB1R antagonistic activity)
Experiment 1 % of activity (CB1 receptor [1]; [8]): 66.2%
Experiment 2 % of activity (CB1 receptor [1]; [8]): 70.7%
Experiment 3 % of activity (CB1 receptor [1]; [8]): 69.5%
Experiment 1 Fold change (CB1 receptor [1]; CBD 1 μM without AKBA): 1.7 Fold change
Experiment 2 Fold change (CB1 receptor [1]; CBD 1 μM without AKBA): 1.8 Fold change
Experiment 3 Fold change (CB1 receptor [1]; CBD 1 μM without AKBA): 1.7 Fold change
Conclusions: Is CB1R antagonist effect observed? (CB1 receptor [1]; CBD 1 μM without AKBA, positive allosteric activity, fold change data): Negative (Only treatments that the mean of three consecutive independent experiments show a positive result (CB1R activity ≥ 4-fold change) are considered positive CB1R allosteric agonists)
